Measured values from ChEMBL document CHEMBL1128139, “Synthesis of 2,3-dideoxy-3,4-dihydroxymethyl substituted pyrimidine nucleoside analogues” (Bioorg Med Chem Lett, 1995).
Calls of active or inactive are those of the source. The rule behind the calls is not given here.

Columns and labels:
[1] = system: HIV-1 reverse transcriptase (Human immunodeficiency virus 1); assay: Compound was tested for HIV-1 RT inhibition in in vitro assay;IA means inactive
[2] = system: Human immunodeficiency virus 1; assay: Compound was tested for anti HIV-1 and cytopathic effects in XTT assay;IA means inactive; format: functional, organism-based

| inhibition [1] | SMILES | Activity [2] |
| --- | --- | --- |
| inactive | Nc1ccn([C@H]2C[C@H](CO)C(CO)(CO)O2)c(=O)n1 | inactive |
| inactive | Nc1ccn([C@@H]2C[C@H](CO)C(CO)(CO)O2)c(=O)n1 | inactive |
| inactive | Cc1cn([C@@H]2C[C@H](CO)C(CO)(CO)O2)c(=O)[nH]c1=O | inactive |
| inactive | Cc1cn([C@H]2C[C@H](CO)C(CO)(CO)O2)c(=O)[nH]c1=O | inactive |
